Reference: PubChem BioAssay AID1919008 (Molecular Pharmacology Branch, DTP, NCI, 2023)
Values joined by “and” are separate entries in the source; they are usually repeats but may differ in a detail not shown here. Identical values can stand only once.

System: DMS-114 complex spheroids with HUVEC/MSC, growth % test/control
Experiment: Anticancer human tumor DMS-114 cell line growth inhibition [AhR];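 note: spheroids exposed to agents for 7 days before readout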;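 for viability, T/C: 100% = DMSO vehicle control wells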
Details: for viability, T/C: stronger effect = lower value
From the text: Multicellular complex tumor spheroid response to aryl hydrocarbon receptor antagonists in combination with a variety of drugs and investigational agents in selected tumor cell lines
The current study was undertaken to assess response to aryl hydrocarbon receptor antagonists in combination with standard-of-care drugs and investigational agents in solid tumor complex spheroid models. Complex spheroids include a stromal component modeled by human endothelial cells (HUVEC) and fibroblasts modeled by human mesenchymal stem cells (MSCs). The concentration ranges selected for each drug and investigational agent were based upon clinically achievable concentrations if the clinical Cmax of the agent was known.
Compounds. The drugs and investigational agents: BAY 2416964 (NSC825713), GNF351 (NSC835774), CH-223191 (NSC835775), CPI-455 (NSC825282), aza-TdCyd (NSC777586), decitabine (NSC127716), belinostat (NSC758774), entinostat (NSC756642), pevonedistat (NSC761192), tazemetostat (NSC777109), talazoparib (NSC765396), olaparib (NSC753686), selinexor (NSC780203), nedisertib (M3814, NSC802822), bortezomib (NSC756655), venetoclax (NSC766270), doxorubicin (NSC123127), elimusertib (BAY189344, NSC800525), ceralasertib (AZD6738, NSC777638), TAK-243 (NSC785004), alisertib (NSC759677), etoposide (NSC141540), topotecan (NSC609699), eribulin (NSC707389), gemcitabine (NSC613327), carboplatin (NSC241240), cisplatin (NSC119875), and SN-38 (NSC673596) were obtained from the National Cancer Institute (NCI) Developmental Therapeutics Program Chemical Repository (32). The FDA-approved anticancer drug set is available from the Developmental Therapeutics Program at https://dtp.cancer.gov/organization/dscb/obtaining/available plates.htm. […] The stock solutions were prepared in dimethyl sulfoxide (DMSO, Sigma-Aldrich, St. Louis, MO, cat. D2650), except for the platinum compounds which were prepared in saline (Quality Biological, Gaithersburg, MD, cat. 114-055-101), at 800-fold the tested concentration and stored at -70 degrees C prior to their use. All drugs and investigational agents were tested over a range starting from a high concentration at or near the clinical Cmax and decreasing in half-log increments. If the clinical Cmax for an agent had not been determined, the highest concentration tested was 10 microM (Table 1).
Cell Culture. All cells were maintained in an incubator at 37 degrees C and 5% CO2 with 95% humidity. The PDC lines were cultured according to standard operating procedures established by the NCI PDMR (https://pdmr.cancer.gov). Briefly, all PDCs were thawed and cultured in Matrigel-coated flasks prepared with a working solution of 1X Ham's F-12 nutrient mix, without supplementation (Invitrogen, Waltham, MA, cat. 11765054), 100 U/mL penicillin-streptomycin (Invitrogen, cat. 15140122), and 2.5% Matrigel (Corning Inc., Corning, NY, cat. 354248) for the first three passages. All PDCs were cultured in complete DMEM/F-12 media containing advanced DMEM/F-12 (Invitrogen, cat. 12634028), 4.9% defined fetal bovine serum, heat inactivated (HyClone Laboratories Inc., Logan, UT, cat. SH30070.03HI), 389 ng/mL hydrocortisone (Sigma-Aldrich, cat. H4001), 9.7 ng/mL human EGF recombinant protein (Invitrogen, cat. PHG0313), 23.4 microg/mL adenine (Sigma-Aldrich, cat. A2786), 97.3 U/mL penicillin-streptomycin (Invitrogen, cat. 15140122), 1.9 mM L-glutamine (Invitrogen, cat. 25030081), and 9.7 microM Y-27632 dihydrochloride (Tocris Bioscience, Bristol, United Kingdom, cat. 1254). The PDCs were cultured in complete DMEM/F12 media without 10 microM Y-27632 dihydrochloride for at least two passages prior to the screen. The established cell lines NCI-H1341 and […] were cultured in DMEM/F-12, HEPES (Invitrogen, cat. 11330032), 5% defined fetal bovine serum (HyClone Laboratories Inc., cat. SH30070.03), ITS premix universal culture supplement [insulin (5 microg/mL), transferrin (5 microg/mL), and selenious acid (5 ng/mL)] […]

SMILES	IC50 (curve of compound)	viability, T/C (compound 0.0316 µM)	viability, T/C (compound 0.1 µM)	viability, T/C (compound 0.316 µM)	viability, T/C (compound 1 µM)	viability, T/C (compound 3.16 µM)	viability, T/C (compound 10 µM)	further results
CC(C)CC(NC(=O)C(Cc1ccccc1)NC(=O)c1cnccn1)B(O)O (stereo not drawn)	5.51 nM and 5.76 nM and 4 nM							viability, T/C (compound 0.000949 µM): 98.7% and 95% and 101%; viability, T/C (compound 0.003 µM): 109% and 105% and 66.2%; viability, T/C (compound 0.00949 µM): 1.7% and 11.6% and 1.54%; viability, T/C (compound 0.03 µM): 0.16% and 0.44% and 0.39%; viability, T/C (compound 0.0949 µM): 0.13% and 0.38% and 0.33%; viability, T/C (compound 0.3 µM): 0.21% and 0.32% and 0.4%
CC(C)c1c(-c2ccccc2)nc2c(C#N)c[nH]n2c1=O	> 10000 nM	104% and 106% and 108%	117% and 104% and 101%	108% and 99.2% and 105%	105% (2×) and 96.3%	116% and 99.7% and 105%	111% and 102% (2×)	
CC(CO)NC(=O)c1cc(-c2ccc(Cl)cc2)nn(-c2cnn(C)c2)c1=O (stereo not drawn)			98.2% [middle of 20 runs]		95.8% [middle of 21 runs]			IC50 (compound alone, run of 07/12/2022): > 10000 nM
CC1(C)CCC(CN2CCN(c3ccc(C(=O)NS(=O)(=O)c4ccc(NCC5CCOCC5)c([N+](=O)[O-])c4)c(Oc4cnc5[nH]ccc5c4)c3)CC2)=C(c2ccc(Cl)cc2)C1	> 10000 nM	101% and 99.7% and 98.9%	102% and 97.2% and 99%	92.6% and 103% and 110%	98.6% and 108% and 117%	113% and 107% and 116%	107% and 105% and 61.2%	
CC1COCCN1c1cc(-c2ccnn2C)c2ccnc(-c3ccn[nH]3)c2n1 (stereo not drawn)		50.2% and 101% and 62.9%	32.1% and 81.2% and 45%	21.2% and 65.8% and 31.5%	10.6% and 33.4% and 15.8%			viability, T/C (compound 0.00316 µM): 89.5% and 94.4% and 96.2%; viability, T/C (compound 0.01 µM): 76.2% and 102% and 80.5%
CC1COCCN1c1cc(C2(S(C)(=N)=O)CC2)nc(-c2ccnc3[nH]ccc23)n1 (stereo not drawn)	5130 nM and > 10000 nM and 5460 nM	99.2% and 97.3% and 90.2%	114% and 106% and 101%	99.1% and 96.2% and 87.3%	98.6% and 98.9% and 78.1%	66.1% and 101% and 65.9%	27.7% and 76.4% and 33.8%	
CCN(c1cc(-c2ccc(CN3CCOCC3)cc2)cc(C(=O)NCc2c(C)cc(C)[nH]c2=O)c1C)C1CCOCC1	> 3000 nM							viability, T/C (compound 0.00949 µM): 99.5% and 108% and 105%; viability, T/C (compound 0.03 µM): 110% and 95.2% and 118%; viability, T/C (compound 0.0949 µM): 112% and 105% and 109%; viability, T/C (compound 0.3 µM): 101% and 100% and 115%; viability, T/C (compound 0.949 µM): 73.7% and 104% and 92.1%; viability, T/C (compound 3 µM): 68.2% and 106% and 76.9%
CC[C@@]1(O)C(=O)OCc2c1cc1n(c2=O)Cc2cc3c(CN(C)C)c(O)ccc3nc2-1	23.4 nM and 27.8 nM and 64.4 nM	39.3% and 44.6% and 60.9%	19% and 22.2% and 43.2%					viability, T/C (compound 0.000316 µM): 101% (2×) and 99%; viability, T/C (compound 0.001 µM): 96.5% and 104% and 98.2%; viability, T/C (compound 0.00316 µM): 93.2% and 85.7% and 107%; viability, T/C (compound 0.01 µM): 79.9% and 87.8% and 95.2%
CCc1c2c(nc3ccc(O)cc13)-c1cc3c(c(=O)n1C2)COC(=O)[C@]3(O)CC	2.01 nM and 9.5 nM and 1.79 nM							viability, T/C (compound 0.000949 µM): 67.7% and 96.1% and 59.2%; viability, T/C (compound 0.003 µM): 40.4% and 91.2% and 42.6%; viability, T/C (compound 0.00949 µM): 20% and 50% and 21.4%; viability, T/C (compound 0.03 µM): 13.4% and 36.5% and 21.1%; viability, T/C (compound 0.0949 µM): 14.4% and 37.9% and 15.2%; viability, T/C (compound 0.3 µM): 14.4% and 35.1% and 16.7%
COc1cc(C2c3cc4c(cc3C(OC3OC5COC(C)OC5C(O)C3O)C3COC(=O)C23)OCO4)cc(OC)c1O (stereo not drawn)	402 nM and 682 nM and 1810 nM	96.4% and 99.5% and 94.3%	85.2% and 85.9% and 99%	57.3% and 77% and 89.2%	23.7% and 34.1% and 60.9%	16.9% and 30.2% and 40.8%	9.04% and 15.1% and 30.3%	
COc1cc(Nc2ncc3c(n2)-c2ccc(Cl)cc2C(c2c(F)cccc2OC)=NC3)ccc1C(=O)O		24.8% and 65.8% and 25.6%	24.5% and 56.9% and 27.2%	40% and 108% and 56%	65.1% and 114% and 79%	64% and 116% and 85.6%	74.5% and 104% and 61.2%	
COc1ccc([C@@H](O)c2cc(-c3ncnc4cc(N5CCOCC5)ccc34)c(F)cc2Cl)nn1	> 10000 nM	104% and 102% and 101%	107% and 101% and 103%	96.9% and 107% and 112%	97.4% and 114% and 94.8%	102% and 110% and 95.2%	56% and 96.2% and 56.6%	
